These are literature values, as cited in article PMC9159073 (Journal of medicinal chemistry, 2022).

Where two headings read alike, the source gives them in different places.

The test system of series [1] is SARS-CoV-2 PL^pro. To be noted: for Inhibition of SARS-CoV-2 PLpro: IC50 not quantified; for IC50: read-out: Enzymatic inhibition IC50.
The subject of series [2] is SARS-CoV-2 PL^pro.
The test system of series [3] is SARS-CoV-2 PL^pro. To be noted: read-out: IC50 (FP assay).
Series [4] relates to SARS-CoV-2.
The subject of series [5] is SARS-CoV-2 PL^pro. The source holds these as a separate data set.
Series [6] deals with SARS-CoV-2. The following applies: for Antiviral effect in combination with hydroxychloroquine: combined with hydroxychloroquine; for Antiviral activity in combination with remdesivir: combined with remdesivir.
The test system of series [7] is SARS-CoV-2 PL^pro. The following applies: increase in FluoZin-3 fluorescence.
The subject of series [8] is SARS-CoV-2 PL^pro. To be noted: read-out: IC50, mass spectrometry assay; nsp 2/3 substrate.
The subject of series [9] is SARS-CoV-2 PL^pro. This is another data set of the same source.
The test system of series [10] is SARS-CoV-2. To be noted: read-out: Antiviral EC50.
Series [11] relates to SARS-CoV-2 PL^pro. The following applies: read-out: IC50, deISGylating activity of PLpro; ISG15-Rh substrate.
Series [12] deals with SARS-CoV-2. The following applies: read-out: Antiviral EC50; A549-hACE2 cells, virus yield reduction assay.
The target of series [13] is SARS-CoV-2 PL^pro. To be noted: read-out: KD (SPR).
Series [14] concerns host DUBs and DUB-like proteases. The following applies: 10 DUBs or DUB-like proteases.
Another series has as its system SARS-CoV-2 M^pro. To be noted: read-out: M^pro IC50; no reducing agent in the Mpro assay.
[15] abbreviates: read-out: IC50, deubiquitinating activity of PLpro.
Setting [16] is: FRET assay, hit validation study.
Where [17] appears, read: SARS-CoV-2 infected Vero E6 cells.
Setting [18] is: read-out: Antiviral EC50 (qRTPCR), Vero E6 cells, qRT-PCR assay.

In the case of Ac-hTyr-Dap-Gly-Gly-VME [VIR251 (45)], the “Inhibition of SARS-CoV PLpro” value with SARS-CoV PL^pro was “dose-dependent inhibition”. Also, the “Inhibition of SARS-CoV-2 PLpro” value in the series with SARS-CoV-2 PL^pro [1] is given as “dose-dependent inhibition”. Regarding `CN(Cc1cn(C2C3=C(OC2(C)C)c2ccccc2C(=O)C3=O)nn1)C1=CC(=O)c2ccccc2C1=O` (stereo not shown) [Compound 39], the IC50 in the series with SARS-CoV-2 PL^pro [1] (0.1 mM DTT in the PLpro assay) was 2.2 µM. For the compound `Oc1c(Cl)cc(Cl)c2cccnc12` [Chloroxine (37), chloroxine], the “Binding to PLpro in the biolayer interferometry and thermal shift assays” value in the series with SARS-CoV-2 PL^pro [2] is “showed binding”. Moreover, the IC50 in the series with SARS-CoV-2 PL^pro [3] is 7.24 µM.

Regarding `CCC(CC)COC(=O)[C@H](C)N[P@](=O)(OC[C@H]1O[C@@](C#N)(c2ccc3c(N)ncnn23)[C@H](O)[C@@H]1O)Oc1ccccc1` [remdesivir (1), remdesivir], the EC50 in the series with SARS-CoV-2 [4] (read-out: Antiviral EC50, SARS-CoV-2 infected Vero E6 cells) is 0.74 µM. Consider `O=C1c2c(O)cccc2[C@H]([C@@H]2O[C@H](CO)[C@@H](O)[C@H](O)[C@H]2O)c2cc(CO)cc(O)c21` [aloin A (42), aloin A], for which the IC50 in the series on SARS-CoV-2 PL^pro [5] (setting [15]) was 15.7 µM; in the series with SARS-CoV-2 PL^pro [1] it was 13.2 µM. Consider `Cc1ccc(NC2=CC(=O)c3sc(C)nc3C2=O)cc1` [Cdk4 inhibitor III (34)], for which the IC50 with SARS-CoV-2 PL^pro [1] (HTS) is 0.39 µM. For the compound `C[C@@H](NC(=O)c1ccccc1CCC(=O)NNC(=O)CC#N)c1cccc2ccccc12` [Compound 50], the IC50 with SARS-CoV-2 PL^pro [1] (covalent inhibitors) is 8 µM. As for `CCN(CC)C(=S)SSC(=S)N(CC)CC` [Disulfiram (67), disulfiram], in the series on SARS-CoV-2 [6], the “Antiviral effect in combination with hydroxychloroquine” value was “synergistic antiviral effect” and the “Antiviral activity in combination with remdesivir” value is given as “synergistic”. The “Zinc ejection from PLpro” value in the series with SARS-CoV-2 PL^pro [7] is “eject zinc”. Moreover, the “Inhibition of nsp13 ATPase activity” value with SARS-CoV-2 nsp13 was “inhibit”. Moreover, the “Inhibition of nsp14 exoribonuclease activity” value with SARS-CoV-2 nsp14 was “inhibit”. In the case of `COCC[n+]1c2c(n(Cc3cnccn3)c1C)C(=O)c1ccccc1C2=O.[Br-]` [YM155 (27), YM155], the IC50 in the series on SARS-CoV-2 PL^pro [8] is above 50 µM; with SARS-CoV-2 PL^pro [1] (setting [16]), 20.1 µM; with SARS-CoV-2 PL^pro [1] (FRET-based enzymatic assay, Arg-Leu-Arg-Gly-Gly-AMC substrate, 50 mM HEPES, pH 7.5, 2 mM DTT) it was 2.47 ± 0.46 µM. Also, the “Intracellular PLpro inhibition in the FlipGFP assay” value (“Intracellular PLpro inhibition” for short) in the series on SARS-CoV-2 PL^pro [9] is given as “not conclusive due to cell cytotoxicity”. As to `c1ccc2sc(SSc3nc4ccccc4s3)nc2c1` [2,2’ -dithiobis(benzothiazole) (70), 2,2’ -dithiobis(benzothiazole)], in the series on SARS-CoV-2 PL^pro [7], the “Zinc ejection from PLpro” value is reported as “eject zinc”. On to `O=C1c2c(O)cccc2[C@@H]([C@@H]2O[C@H](CO)[C@@H](O)[C@H](O)[C@H]2O)c2cc(CO)cc(O)c21` [aloin B (43), aloin B], for which the IC50 with SARS-CoV-2 PL^pro [5] (setting [15]) is 17.5 µM; with SARS-CoV-2 PL^pro [1], 16.1 µM.

Take `COC(=O)/C=C/C(=O)NNC(=O)CCc1ccccc1C(=O)N[C@H](C)c1cccc2ccccc12` [Compound 46]: the IC50 in the series on SARS-CoV-2 PL^pro [5] (read-out: IC50, deubiquitinating activity) is […]. With `C#CC(=O)NNC(=O)CCc1ccccc1C(=O)N[C@H](C)c1cccc2ccccc12` [Compound 48], the “Antiviral EC50” value in the series with SARS-CoV-2 [4] (setting [17]) is “cytotoxic”. Besides, in the series with SARS-CoV-2 PL^pro [1] (covalent inhibitors), the IC50 is 0.098 µM. `Cc1coc2c1C(=O)C(=O)c1c-2ccc2c1CCCC2(C)C` [tanshinone IIA (31), tanshinone IIA]: the EC50 with SARS-CoV-2 [10] is above 200 µM. In the case of `C[C@@H](NC(=O)c1ccccc1CCC(=O)NNC(=O)CCl)c1cccc2ccccc12` [Compound 49], the IC50 with SARS-CoV-2 PL^pro [1] (covalent inhibitors) is 5.4 µM.

`O=Cc1ccc(O)cc1` [HBA (22), 4-hydroxybenzaldehyde]: in the series on SARS-CoV-2 [4] (Vero E6 cells, qRT-PCR assay), the “Antiviral EC50 (qRTPCR)” value is listed as “not conclusive”. For the same compound, in the series on SARS-CoV-2 PL^pro [11], the IC50 is 3.99 ± 1.33 µM. For the compound `CC1(C)OC2=C(C(=O)C(=O)c3ccccc32)C1n1cc(-c2ccccc2)nn1` (stereo not shown) [Compound 38], the IC50 in the series on SARS-CoV-2 PL^pro [1] (0.1 mM DTT in the PLpro assay) is 1.7 µM. As to `Cc1ccc(N)cc1C(=O)N[C@H](C)c1cccc2ccccc12` [GRL0617 (4), GRL0617], in the series on SARS-CoV-2 [12], the EC50 is above 20 µM.

On to `COC(=O)c1ccc(O)c(O)c1` [HE9 (20), methyl 3,4-dihydroxybenzoate], for which the EC50 with SARS-CoV-2 [4] (read-out: Antiviral EC50 (CPE), cytopathic effect (CPE) assay) was 10.4 µM; in the series on SARS-CoV-2 [4] (setting [18]), 0.13 µM. Consider `C[C@@H](NC(=O)c1ccccc1CCC(=O)NNC(=O)/C(C#N)=C/C1CC1)c1cccc2ccccc12` [Compound 51], for which the IC50 in the series with SARS-CoV-2 PL^pro [1] (covalent inhibitors) was above 200 µM. In the case of `Cc1cc2nc3c(=O)[nH]c(=O)nc-3n(C)c2cc1C=O` [Ro 08–2750 (33)], the IC50 with SARS-CoV-2 PL^pro [1] (HTS) is 0.53 µM. As to `Nc1nc2[nH]cnc2c(=S)[nH]1` [6-TG (26), 6-thioguanine], the “Binding to PLpro in the thermal shift assay” value with SARS-CoV-2 PL^pro [2] is recorded as “no binding”. Besides, the “Intracellular PLpro inhibition” value in the series on SARS-CoV-2 PL^pro [9] is listed as “did not inhibit”. In the series on SARS-CoV-2 PL^pro [1] (setting [16]), the IC50 is above 50 µM. Take `O=C1c2ccccc2-c2nc3nnnn3nc21` [PKK1/Akt/Flt dual pathway inhibitor (32)]: in the series on SARS-CoV-2 PL^pro [1] (HTS), the IC50 is 0.26 µM. For `O=c1c2ccccc2[se]n1-c1ccccc1` [Ebselen (55), ebselen], in the series on SARS-CoV-2 [6], the “Antiviral effect in combination with hydroxychloroquine” value is “synergistic antiviral effect” and the “Antiviral activity in combination with remdesivir” value is “synergistic”. Further, the “Zinc ejection from PLpro” value in the series on SARS-CoV-2 PL^pro [7] is on record as “eject zinc”. Besides, the “Inhibition of nsp13 ATPase activity” value in the series with SARS-CoV-2 nsp13 was “inhibit”. Moreover, the “Inhibition of nsp14 exoribonuclease activity” value with SARS-CoV-2 nsp14 is reported as “inhibit”. On to `C[C@H](c1cccc2ccccc12)N1CCC(C(=O)NCc2cc(F)cc(NC(=O)N3CCN(C)CC3)c2)CC1` [Compound 8], for which, at SARS-CoV-2 PL^pro [13], the Kd was 2.6 µM. For the same compound, the “Inhibition of a panel of host DUBs and DUB-like proteases” value in series [14] is reported as “did not show significant inhibition”. Further, in the series with SARS-CoV-2 PL^pro [1], the IC50 is 0.44 µM. As for “Ac-Abu(Bth)-Dap-Gly-Gly-VME [VIR250 (44)]”, the “Inhibition of SARS-CoV PLpro” value in the series with SARS-CoV PL^pro was “dose-dependent inhibition”. Besides, the “Inhibition of SARS-CoV-2 PLpro” value in the series with SARS-CoV-2 PL^pro [1] is reported as “dose-dependent inhibition”. Consider `C[C@H]1COC2=C1C(=O)C(=O)c1c2ccc2c1CCCC2(C)C` [cryptotanshinone (28), cryptotanshinone], for which the EC50 in the series on SARS-CoV-2 [10] is above 200 µM. Further, the “Intracellular PLpro inhibition” value in the series on SARS-CoV-2 PL^pro [9] is recorded as “not conclusive due to cell cytotoxicity”. Turning to `CC1(C)CCC2=C(O1)c1ccccc1C(=O)C2=O` [β-lapachone (35), β-lapachone], the IC50 in the series on SARS-CoV-2 PL^pro [1] (HTS) was 0.61 µM. With `O=C(O)c1cc(SSc2ccc([N+](=O)[O-])c(C(=O)O)c2)ccc1[N+](=O)[O-]` [5,5’ -dithiobis(2-nitrobenzoic acid)], in the series with SARS-CoV-2 PL^pro [7], the “Zinc ejection from PLpro” value is listed as “eject zinc”. Take `c1ccc(SSc2ccccn2)nc1` [2,2’ -dithiodipyridine (69), 2,2’ -dithiodipyridine]: the “Zinc ejection from PLpro” value in the series with SARS-CoV-2 PL^pro [7] is “eject zinc”. With `CC(C)C(=O)OC[C@H]1O[C@@H](n2ccc(NO)nc2=O)[C@H](O)[C@@H]1O` [Molnupiravir (2), molnupiravir], the Ames test result in the series with bacteria is “positive”. On to `COC(=O)/C=C/C(=O)NNC(=O)CCc1ccc(NC(C)=O)cc1C(=O)N[C@H](C)c1cccc2ccccc12` [Compound 47], for which the “Antiviral EC50” value in the series on SARS-CoV-2 [4] (setting [17]) is “insignificant cytoprotective effects”. Further, the IC50 with SARS-CoV-2 PL^pro [1] (covalent inhibitors) is 0.23 µM.

For `Cc1cccc2c3c(ccc12)C1=C(C(=O)C3=O)[C@@H](C)CO1` [dihydrotanshinone I (30), dihydrotanshinone I], the IC50 was 33 µM with SARS-CoV-2 PL^pro [1] (setting [16]) and 0.59 µM in the series on SARS-CoV-2 PL^pro [1] (HTS). For `Cc1c(S(=O)(=O)O)oc2c1C(=O)C(=O)c1c-2ccc2c1CCCC2(C)C` [Tanshinone IIA sulfonate (36), tanshinone IIA sulfonate], the IC50 in the series with SARS-CoV-2 PL^pro [8] was […]. With `C[C@H](c1ccccc1Cl)N(C)Cc1cc(O)ccc1Cl` [Jun9-13-9 (11)], the IC50 with SARS-CoV-2 PL^pro [1] (FRET-based enzymatic assay) was 6.67 µM. On to `OCCc1ccc(O)cc1` [YRL (21), 4-(2-hydroxyethyl)phenol], for which the “Antiviral EC50 (CPE)” value in the series on SARS-CoV-2 [4] (cytopathic effect (CPE) assay) is given as “failed to show inhibition”. The EC50 with SARS-CoV-2 [4] (setting [18]) is 1 µM. The IC50 in the series with SARS-CoV-2 PL^pro [11] was 6.68 ± 1.2 µM. Consider `CN(Cc1cn(C2C3=C(OC2(C)C)c2ccccc2C(=O)C3=O)nn1)C1=C(Br)C(=O)c2ccccc2C1=O` (stereo not shown) [Compound 40], for which the values for the IC50 with SARS-CoV-2 M^pro and in the series on SARS-CoV-2 PL^pro [1] (0.1 mM DTT in the PLpro assay) were 66 µM and 3.1 µM, respectively. As for `O=c1nc(NO)ccn1[C@@H]1O[C@H](CO)[C@@H](O)[C@H]1O` [NHC, β-d-N^4-hydroxycytidine], the Host mutational activity result in the series on mammalian cell culture was “displayed host mutational activity”.

Usually IC50 stands for the concentration at which inhibition is half-maximal. Usually EC50 stands for the concentration giving half of the maximal effect. Usually Kd stands for a measure of binding affinity in units of concentration.
